Here are results for eight compounds from patent US20250136607A1 (REGOR PHARMACEUTICALS, INC., priority 2021, published 2025).

Structures are written as SMILES.

A word on the IC50: it is the point on the concentration scale where inhibition reaches its midpoint.

Assay [1] concerns the target Protein arginine deiminase 4 (PAD4) (Homo sapiens, UniProt Q9UM07). As to the kind of experiment: PAD4 ammonia release assay. In kind it is biochemical. The following applies: PAD4 ammonia release assay, BAEE substrate, 60 min at RT; read-out: Average IC50 Abs. Put shortly:
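Ammonia release from BAEE substrate (2× mix 600 μM) was measured after 60 min at RT, following 15 min enzyme–compound preincubation (PAD4 2× 20 nM; pH 8.0 HEPES, 2 mM CaCl2, TCEP; 1.25% DMSO). Detection used OPA/DTT/EDTA for 120 min. % inhibition was taken versus reference-compound and DMSO controls; IC50 by four-parameter logistic fit.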

For assay [2], the system named is Citrullinated Histone H3 in dHL-60 cells (differentiated HL-60). As to the kind of experiment: dHL-60 Cit-H3 ELISA assay. Type of assay: cell-based, human. The following applies: Homo sapiens, HL-60, 3 h, stimulation with 25 μM A23187 for 3 h, read-out: Average IC50 Abs. Put shortly: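 HL-60 cells differentiated 72 h with DMF, plated at 1×10^5/well, pretreated 30 min with compound (8-point 3-fold series, 0.2% DMSO), then stimulated 3 h at 37 °C with 25 μM A23187 plus S7 nuclease. Supernatant citrullinated H3 quantified by HRP ELISA at 450 nm; IC50 by four-parameter fit.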

Protein arginine deiminase 4 (PAD4), sequence (Q9UM07 whole entry): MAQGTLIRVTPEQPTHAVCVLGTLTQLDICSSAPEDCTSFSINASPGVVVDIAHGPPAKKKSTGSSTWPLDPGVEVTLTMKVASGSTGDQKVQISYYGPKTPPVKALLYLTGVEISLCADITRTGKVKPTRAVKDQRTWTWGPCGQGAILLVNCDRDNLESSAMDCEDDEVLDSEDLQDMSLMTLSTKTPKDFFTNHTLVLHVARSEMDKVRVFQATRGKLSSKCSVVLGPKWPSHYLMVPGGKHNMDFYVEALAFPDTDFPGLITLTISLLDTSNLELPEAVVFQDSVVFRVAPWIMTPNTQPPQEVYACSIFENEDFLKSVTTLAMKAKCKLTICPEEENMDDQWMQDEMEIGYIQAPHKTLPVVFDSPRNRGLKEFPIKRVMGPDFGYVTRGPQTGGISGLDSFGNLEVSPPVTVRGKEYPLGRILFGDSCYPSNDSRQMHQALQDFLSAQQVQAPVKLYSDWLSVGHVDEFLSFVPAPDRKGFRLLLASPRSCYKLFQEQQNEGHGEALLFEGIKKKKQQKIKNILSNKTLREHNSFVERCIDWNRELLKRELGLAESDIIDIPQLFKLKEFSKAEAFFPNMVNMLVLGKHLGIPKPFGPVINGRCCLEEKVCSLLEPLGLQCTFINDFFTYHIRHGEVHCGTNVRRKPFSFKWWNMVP

`Cn1c(-c2cc3ccc(S(C)(=O)=O)c4c3n2C(C2CC2)CN4)nc2cc(C(=O)N3C[C@H]4CC[C@@H]3[C@@H]4N)cc(F)c21` (stereo partly drawn) [Example 123, ((1R,4R,7R)-7-amino-2-azabicyclo[2.2.1]heptan-2-yl)(2-(3-cyclopropyl-9-(methylsulfonyl)-2,3-dihydro-1H-pyrrolo[1,2,3-de]quinoxalin-5-yl)-7-fluoro-1-methyl-1H-benzo[d]imidazol-5-yl)methanone]: the IC50 in assay [1] and in assay [2] was at most 100 nM each time.
Turning to `CCC1CNc2cc(F)cc3cc(-c4nc5cc(C(=O)N6C[C@H]7CC[C@@H]6[C@@H]7N)cc(F)c5n4C)n1c23` (stereo partly drawn) [Example 130, ((1R,4R,7R)-7-amino-2-azabicyclo[2.2.1]heptan-2-yl)(2-(3-ethyl-8-fluoro-2,3-dihydro-1H-pyrrolo[1,2,3-de]quinoxalin-5-yl)-7-fluoro-1-methyl-1H-benzo[d]imidazol-5-yl)methanone], the IC50 in assay [1] and in assay [2] was 100 to 500 nM in each case.
With `CCC1CNc2cccc3cc(-c4nn5cc(C(=O)N6C[C@H]7CC[C@@H]6[C@@H]7N)cc(F)c5c4C)n1c23` (stereo partly drawn) [Example 140, [(1R,4R,7R)-7-amino-2-azabicyclo[2.2.1]heptan-2-yl]-[2-(11-ethyl-1,9-diazatricyclo[6.3.1.0^4,12]dodeca-2,4,6,8(12)-tetraen-2-yl)-4-fluoro-3-methyl-pyrazolo[1,5-a]pyridin-6-yl]methanone], the IC50 in assay [1] lay in the range of 100 to 500 nM; in assay [2], 500 to 5000 nM.
For `Cn1c(-c2cc3ccc4c(c3n2CC2CC2)NCC4)nc2cc(C(=O)N3C[C@H]4CC[C@@H]3[C@@H]4N)cc(F)c21` [Example 147, ((1R,4R,7R)-7-amino-2-azabicyclo[2.2.1]heptan-2-yl)(2-(1-(cyclopropylmethyl)-1,6,7,8-tetrahydropyrrolo[3,2-g]indol-2-yl)-7-fluoro-1-methyl-1H-benzo[d]imidazol-5-yl)methanone] the same measures were at most 100 nM and 100 to 500 nM.
As for `Cn1c(-c2cc3ccc4cc[nH]c4c3n2CC2CC2)nc2cc(C(=O)N3C[C@H]4CC[C@@H]3[C@@H]4N)cc(F)c21` [Example 148, ((1R,4R,7R)-7-amino-2-azabicyclo[2.2.1]heptan-2-yl)(2-(1-(cyclopropylmethyl)-1,8-dihydropyrrolo[3,2-g]indol-2-yl)-7-fluoro-1-methyl-1H-benzo[d]imidazol-5-yl)methanone], the IC50 in assay [1] and in assay [2] was at most 100 nM throughout.
As to `CCN1CCc2c(ccc3cc(-c4nc5cc(C(=O)N6C[C@H]7CC[C@@H]6[C@@H]7N)cc(F)c5n4C)n(CC4CC4)c23)C1` [Example 153, ((1R,4R,7R)-7-amino-2-azabicyclo[2.2.1]heptan-2-yl)(2-(1-(cyclopropylmethyl)-7-ethyl-6,7,8,9-tetrahydro-1H-pyrrolo[2,3-f]isoquinolin-2-yl)-7-fluoro-1-methyl-1H-benzo[d]imidazol-5-yl)methanone], the IC50 in assay [1] and in assay [2] was 100 to 500 nM in each case.
Turning to `CC(=O)N1CCc2c(ccc3cc(-c4nc5cc(C(=O)N6C[C@H]7CC[C@@H]6[C@@H]7N)cc(F)c5n4C)n(CC4CC4)c23)C1` [Example 156, 1-(2-(5-((1R,4R,7R)-7-amino-2-azabicyclo[2.2.1]heptane-2-carbonyl)-7-fluoro-1-methyl-1H-benzo[d]imidazol-2-yl)-1-(cyclopropylmethyl)-1,6,8,9-tetrahydro-7H-pyrrolo[2,3-f]isoquinolin-7-yl)ethan-1-one], the IC50 in assay [1] and in assay [2] was at most 100 nM throughout.
`Cn1c(-c2cc3ccc4cn[nH]c4c3n2CC2CC2)nc2cc(C(=O)N3C[C@H]4CC[C@@H]3[C@@H]4N)cc(F)c21` [Example 157, ((1R,4R,7R)-7-amino-2-azabicyclo[2.2.1]heptan-2-yl)(2-(8-(cyclopropylmethyl)-1,8-dihydropyrrolo[3,2-g]indazol-7-yl)-7-fluoro-1-methyl-1H-benzo[d]imidazol-5-yl)methanone]: the IC50 in assay [1] and in assay [2] was at most 100 nM each time.
